Source: patent US10507211B2, “Treatment for hereditary neuropathy with liability to pressure palsies (HNPP)” (Vanderbilt University, priority 2016, dated 2019)
Marks after values point to notes of the source that are not given here.

Tests used:
Pmp22+/− mice [1] = experiment: Mouse tolerance to PF3758309 (i.p. daily); type: in vivo
Excerpt: Pmp22+/− mice were backcrossed with C57Bl6J mice (Jackson Lab) for more than 10 generations to reach congenic. Mice were genotyped as described. The congenic Pmp22+/− mice have been extensively characterized.
For PAK1 inhibitor (PF3758309) injections, Pmp22+/− mice were randomized into vehicle and treated groups. Based on the power calculation of variations derived from mouse compound nerve action potentials, 7 mice for each group would have a 92% chance to detect a significant difference. PF-3758309 (Cat# CT-PF0375, ChemieTek) was dissolved in normal saline for intraperitoneal injection (i.p.) daily.

MEK1 = experiment: Western blot of phosphorylated MEK1 (S298) in sciatic nerves of treated Pmp22+/− mice; type: in vivo, mouse; conditions: 1 week old at start of injection; 0.25 mg/kg/day I.P.; 11 weeks; n = 8
Excerpt: Residues in other PAKs could be phosphorylated but cannot be substantiated due to the lack of specific antibodies.
Samples were homogenized for protein isolation.

F-actin = F-actin staining of teased nerve fibers with fluorescent phalloidin in treated Pmp22+/− mice; type: in vivo, mouse; conditions: versus vehicle
Protocol: This method was modified from the published study. In brief, sciatic nerves were fixed, embedded in paraffin, and cut into 5 μm-thick slices. Sections were incubated overnight with primary antibodies at 4° C. After washing, sections were stained for 1 hour with secondary antibodies. The stained slides were examined under a Leica fluorescent microscope (Leica DM6000B). For teased nerve stains, sciatic nerves were fixed in 4% paraformaldehyde (PFA) overnight and teased into individual fibers on glass slides. […] For newly formed F-actin staining, as described, the existing F-actin in sciatic nerve explants was saturated with a cell-permeable actin-binding compound, jasplakinolide (Cat#420127, Millipore), at 1 μM in culture media. After washing with PBS, the explants were incubated in a drug-free media for 6 hours at 37° C. The explants were fixed in 4% PFA and teased for F-actin staining using fluorescent phalloidin (1:400, Cat# R415, Life Technologies).

PAK1 [2] = experiment: F-actin and phosphorylated PAK1 in Pak1+/+ and Pak1−/− primary Schwann cell culture; type: cell-based; conditions: Pak1−/− Schwann cells; 9 μM for 12 hour
Excerpt: (§1) FIG. 8. […] The total actin and GAPDH were used as loading controls.

PAK2 = target: T1, PAK2 (Mus musculus, UniProt Q8CIN4); experiment: Phosphorylated PAK2 (S20) in primary Schwann cell culture; type: cell-based; conditions: Schwann cells; 9 μM for 12 hour
T1 construct: Pak1+/+ and Pak1−/− primary Schwann cell culture; endogenous in cells; host or cells: primary Schwann cells, Pak1+/+ and Pak1-/-
Excerpt: as §1

[3] = reference [23]; cited from earlier work
Pmp22+/− mice [4] = experiment: Nerve conduction study (NCS) on sciatic nerves of treated Pmp22+/− mice; conditions: for CV(m/s): 0.25 mg/kg/day I.P., n = 8
Protocol: (§2) Thus, Pmp22+/− mice were treated with 0.25, 0.5, 1.0 mg/kg PF3758309 or vehicle—saline (FIG. 7 and Table 1). […] Injection started at age of postnatal day 7.
In FIG. 7, Panel B, CMAP amplitudes were measured prior to the treatment.
NCS was previously described [8]. […] A skilled technician gets NCS done in each mouse within 6 minutes. […] CMAP was recorded from the intrinsic foot muscle using needle electrodes. Stimulation electrodes were positioned percutaneously at the sciatic notch and adjacent to the tibial nerve at the ankle. CMAP amplitudes were measured from baseline to the peak of negative deflection.

Pmp22+/− mice [5] = experiment: Percentage of teased nerve fibers with tomacula in treated Pmp22+/− mice; conditions: 0.25 mg/kg/day I.P.
Excerpt: (§3) Injection started at age of postnatal day 7. […] Using teased nerve fibers, the percentages of nerve fibers with tomacula, a key pathology of HNPP, was quantified, as described [8].
Another 14 Pmp22+/− mice (un-injected) were counted.

PAK1 [6] = target: T2, PAK1 (Mus musculus, UniProt O88643); experiment: Western blot of phosphorylated PAK1 (T212) in sciatic nerves of treated Pmp22+/− mice; conditions: 0.25 mg/kg/day I.P., n = 8
Target sequence in this assay (O88643 whole entry): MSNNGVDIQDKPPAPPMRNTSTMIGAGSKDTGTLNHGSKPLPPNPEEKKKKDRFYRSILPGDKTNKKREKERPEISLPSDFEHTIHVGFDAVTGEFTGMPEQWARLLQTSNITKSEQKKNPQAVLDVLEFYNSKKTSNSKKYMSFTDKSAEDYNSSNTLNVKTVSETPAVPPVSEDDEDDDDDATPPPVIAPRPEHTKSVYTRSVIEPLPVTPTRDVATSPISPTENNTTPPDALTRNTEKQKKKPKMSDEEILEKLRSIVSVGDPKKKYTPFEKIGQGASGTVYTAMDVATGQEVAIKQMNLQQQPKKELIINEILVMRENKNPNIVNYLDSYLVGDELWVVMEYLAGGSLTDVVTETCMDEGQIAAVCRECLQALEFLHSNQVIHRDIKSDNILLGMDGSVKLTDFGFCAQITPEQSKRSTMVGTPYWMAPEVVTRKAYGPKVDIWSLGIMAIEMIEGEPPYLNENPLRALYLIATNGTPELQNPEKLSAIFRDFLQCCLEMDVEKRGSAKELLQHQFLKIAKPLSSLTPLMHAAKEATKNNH
Protocol: The specificity of total PAK1, S144, and T212 antibodies was verified using Pak1+/+ and Pak1−/− nerves.
as §3
Samples were homogenized for protein isolation. […] Samples were loaded into SDS-PAGE gels and transferred to a PVDF membrane. The membranes were blotted with 5% non-fat milk and incubated overnight at 4° C. with primary antibodies, and followed by secondary antibodies. The immune complexes were detected by the enhanced chemoilluminescence (Cat# NEL103001, Perkin Elmer). In some cases, the blots were stripped and re-probed with additional antibodies. Quantification of band intensity was performed by the ImageJ software (rsbweb.nih.gov/ij/).

claudin-19 = experiment: Abnormal claudin-19 staining of paranodes and incisures (tight junctions) in treated Pmp22+/− mice; conditions: 0.25 mg/kg/day I.P., n = 8
Excerpt: Paraffin sections of mouse sciatic nerves were stained with antibodies. Percentages of abnormal paranodes or incisures were manually counted [3]. An abnormal paranode or incisurae was defined as the staining was absent in more than a half of normally stained paranodal or incisure territory. […] White dots outline the margin of the nerve fiber, based on its phase-contrast image. […] As shown in Panel E of FIG. 2, teased sciatic nerve fibers of Pmp22+/+ mice at the 3 months of age were stained with antibodies against claudin-19 to show paranodes (quadrant E1) and incisures (arrowhead in quadrant E3).
as §2
In brief, sciatic nerves were fixed, embedded in paraffin, and cut into 5 μm-thick slices. Sections were incubated overnight with primary antibodies at 4° C. After washing, sections were stained for 1 hour with secondary antibodies. The stained slides were examined under a Leica fluorescent microscope (Leica DM6000B). For teased nerve stains, sciatic nerves were fixed in 4% paraformaldehyde (PFA) overnight and teased into individual fibers on glass slides. The slides were dried overnight, reacted with primary antibodies, and followed by secondary antibodies.

Pmp22+/− mice [7] = experiment: Evaluation of myelin permeability with 3 kDa Dextran in sciatic nerve fascicles of treated Pmp22+/− mice; conditions: 3-month-old Pmp22+/− mice; 0.25 mg/kg; versus vehicle; P<0.001
Protocol: With reference to Panel E of FIG. 7, sciatic nerve fascicles from 3-month-old Pmp22+/− mice were incubated with 3 kDa Dextran, as described [3], to evaluate the myelin permeability. Individual teased nerve fibers were imaged. Arrowheads point to the node of Ranvier. […] With reference to Panel F of FIG. 7, fluorescence intensity was quantified by placing a 2.5 μm×2.5 μm interest box 10 μm away from the middle point of the node of Ranvier.
In brief, 1 cm sciatic nerve fascicles were submerged in artificial CSF after epineurium removal and sealed at both ends with Vaseline. A 3 kDa Dextran of fluorescence (2 mg/ml, Cat# D3329, Life technologies) was added for one hour incubation at room temperature without oxygenation. After washing, the nerve fascicles were fixed in 4% PFA for 10 minutes and teased into individual nerve fibers on glass slides for fluorescence microscopy. Fluorescence intensity was quantified by placing a 5 μm×5 μm interest box 10 μm away from the middle point of the node of Ranvier.

PAK1 [8] = target: T2, PAK1; experiment: F-actin and phosphorylated PAK1 in Pak1+/+ and Pak1−/− primary Schwann cell culture; type: cell-based; set-up: Pak1+/+ and Pak1−/− primary Schwann cell culture; endogenous in cells; host or cells: primary Schwann cells, Pak1+/+ and Pak1-/-; conditions: Pak1+/+ Schwann cells; 9 μM for 12 hour
Excerpt: as §1
Target sequence in this assay (O88643 2-545): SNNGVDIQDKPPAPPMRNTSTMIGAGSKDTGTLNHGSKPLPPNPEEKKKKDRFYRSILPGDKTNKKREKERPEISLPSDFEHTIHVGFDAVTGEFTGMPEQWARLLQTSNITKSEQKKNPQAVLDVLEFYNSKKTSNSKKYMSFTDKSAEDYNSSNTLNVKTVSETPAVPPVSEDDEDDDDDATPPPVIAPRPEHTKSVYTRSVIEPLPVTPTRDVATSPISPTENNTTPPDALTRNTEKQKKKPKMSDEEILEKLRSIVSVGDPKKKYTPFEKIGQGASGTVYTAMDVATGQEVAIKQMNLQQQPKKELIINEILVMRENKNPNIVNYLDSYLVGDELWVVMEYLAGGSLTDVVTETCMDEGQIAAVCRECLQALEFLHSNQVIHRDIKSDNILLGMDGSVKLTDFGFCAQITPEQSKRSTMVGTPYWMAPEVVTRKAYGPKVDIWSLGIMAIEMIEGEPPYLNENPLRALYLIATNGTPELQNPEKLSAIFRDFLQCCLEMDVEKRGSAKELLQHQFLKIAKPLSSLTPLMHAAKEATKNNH

[9] = 1 week old at start of injection, 11 weeks
[10] = 6-11 month age at start of injection, 4 weeks

T1 sequence (Q8CIN4 whole entry): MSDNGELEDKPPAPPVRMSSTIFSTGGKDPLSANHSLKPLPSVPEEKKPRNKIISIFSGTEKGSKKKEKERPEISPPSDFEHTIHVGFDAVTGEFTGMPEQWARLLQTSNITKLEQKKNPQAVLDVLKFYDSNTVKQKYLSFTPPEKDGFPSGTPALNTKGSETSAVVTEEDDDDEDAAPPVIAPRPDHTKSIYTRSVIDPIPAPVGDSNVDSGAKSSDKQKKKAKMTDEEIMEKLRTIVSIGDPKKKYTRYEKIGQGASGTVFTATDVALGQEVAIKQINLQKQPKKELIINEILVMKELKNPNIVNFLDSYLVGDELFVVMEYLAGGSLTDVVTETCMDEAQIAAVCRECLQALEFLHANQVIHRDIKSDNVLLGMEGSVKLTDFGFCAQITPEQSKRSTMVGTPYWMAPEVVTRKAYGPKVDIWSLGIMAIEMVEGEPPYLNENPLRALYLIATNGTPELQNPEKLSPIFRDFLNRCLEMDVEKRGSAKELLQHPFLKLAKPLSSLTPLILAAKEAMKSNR

Cc1nc(Nc2n[nH]c3c2CN(C(=O)N[C@H](CN(C)C)c2ccccc2)C3(C)C)c2sccc2n1 [PF-3758309]
mortality and side-effect (Pmp22+/− mice [1]; 0.25 mg/kg, treated for 11 weeks): no increase of mouse mortality and observable side-effect
mice killed (Pmp22+/− mice [1]; 2.5 mg/kg or 25 mg/kg i.p. daily, 20 Pmp22+/− mice, within 15 days): over 50%
body weight (Pmp22+/− mice [1]; 2.5 mg/kg or 25 mg/kg i.p. daily, within 15 days): drastic reduction of body weight
tolerance (body weight, death) (Pmp22+/− mice [1]; 0.25, 0.5, 1.0 mg/kg i.p. daily, 11 weeks): tolerated these doses well with no change of body weight or increase of death
Ratio (S298/MEK1) (MEK1): 0.39 ± 0.2
levels of F-actin (F-actin; 0.25 mg/kg i.p. daily for 11 weeks, 3-month-old Pmp22+/− mice): suppressed
F-actin levels (F-actin; mice enrolled at 6-11 months, 0.25 mg/kg): significantly lower
F-actin level (PAK1 [2]): failed to change
level of phosphorylated PAK2 (S20) (PAK2): inhibited
total PAK2 levels (PAK2): not altered
penetration into the nervous system [3]: penetrated into the nervous system
CMAP amplitude (Pmp22+/− mice [4]; 1.00 mg/kg i.p. daily for 11 weeks from postnatal day 7, eight 3-month-old Pmp22+/− mice (Pmp22+/+ 3.2±0.6 mV)): 1.5±0.8 mV
decline of CMAP amplitudes (Pmp22+/− mice [4]; 0.25, 0.5, 1.0 mg/kg i.p. daily for 11 weeks from postnatal day 7, versus vehicle): prevented the decline of CMAP amplitudes with all three dosages
CV(m/s) (Pmp22+/− mice [4]; [9]): 17.8 ± 3.0 m/s
CV(m/s) (Pmp22+/− mice [4]; [10]): 19.7 ± 11.1 m/s
decrease of CMAP amplitudes over the course of treatment (Pmp22+/− mice [4]; mice enrolled at 6-11 months, 0.25 mg/kg, vehicle fell from 1.6±0.7 mV to 0.7±0.2 mV): completely prevented
% Tomacula (Pmp22+/− mice [5]; 1 week old at start of injection, 11 weeks, n = 8): 27.3 ± 4.5%
% Tomacula +outlier (Pmp22+/− mice [5]; 6-11 month age at start of injection, 4 weeks, outlier included): 25.2 ± 7.5%
% Tomacula −outlier (Pmp22+/− mice [5]; 6-11 month age at start of injection, 4 weeks, outlier taken off): 22.8 ± 4.3 ^d %
Ratio (T212/PAK1) (PAK1 [6]; [9]): 0.61 ± 0.0
Ratio (T212/PAK1) (PAK1 [6]; [10]): 0.26 ± 0.1
% abnormal Claudin-19 (incisures) (claudin-19; incisures, 1 week old at start of injection, 11 weeks): 27.7 ± 4.6 ^b %
% abnormal Claudin-19 (paranodes) (claudin-19; [9]): 36.5 ± 18.4 ^a %
% abnormal Claudin-19 (paranodes) (claudin-19; [10]): 43.5 ± 13.3 ^a %
3 kDa Dextran fluorescence intensity (myelin permeability) (Pmp22+/− mice [7]): significantly decreased
F-actin level (PAK1 [8]): hardly detectable
level of phosphorylated PAK1 (S144) (PAK1 [8]): suppressed
level of phosphorylated PAK1 (T212) (PAK1 [8]): suppressed
